pEC50, pIC50: −log10 of the molar value. Entries after “also recorded” stand apart in the source; their conditions may differ. Read-outs that look alike come from different tables or passages of the source.
Key:
BV2 cells = test: Microglial phagocytosis/cell health high-content assay, BV2 cells; type: cell-based; conditions: for Ave. % Cell Count @ 60 uM BV2 cells / Ave. % Phagocytosis @ 60 uM BV2 cells: 48 hrs, compared to control; for phagocytosis increase against cell count decline: HMC3 and BV2 cells (Table 6, FIGS. 21, 22); for pIC50 / pEC50: Mus musculus, BV-2; for pIC50: read-out: cell count decrease IC50
Protocol: (§1) The assay introduced here is a simplified cellular imaging assay without any fixation and washing steps, while producing multiparameter measurements with high capacity using a 384-well plate format. The assay procedures include plating cells on day 1, incubating cell plates overnight before treating cells on day 2, adding pHrodo™-myelin/membrane debris to cell plates on day 3, and 20 hr later, staining cell nuclei with Hoechst-33342 for 30 min before performing high-content imaging on day 4. Three selected parameters are measured from cells: 1) mean total fluorescence intensity per cell of pHrodo™-myelin/membrane debris in phagocytosis vesicles to quantify phagocytosis; 2) cell counts per well to quantify treatment effects on proliferation and cell death; and 3) average nuclear intensity to quantify treatment-induced nuclear changes such as in apoptosis. The assay has been used on HMC3 cells (an immortalized human microglial cell line), BV2 cells (an immortalized mouse microglial cell line), and primary microglia isolated from mouse brains. For initial assay attempts, we recommend using HMC3 cells available from the ATCC.
(§2) All collected raw data are normalized to the untreated control with following formula: % of control=100×(X−Min)/(Max−Min). Factors in the formula are: X is raw data from a treated well, Max is an average measurement from pHrodo™-myelin seeded but untreated wells, and Min is an average measurement from no pHrodo™-myelin untreated wells. Normalized data are used for curve fitting that is done with the variable slope (four parameters) using the Prism software.
(§3) To ensure that the measurements reflect the steady state of compound treatment effects and cell health, the assay was set with a total compound treatment time of 48 hr, including pHrodo™-myelin/membrane debris seeding performed 20-24 hr after compound addition. […] Among many available quantitative measurements from the image analysis, we selected three parameters for the assay:
(§4) 1) The mean total intensity of phagocytosis vesicles/cell—to measure phagocytosis. There are multiple parameters generated from the image analysis, including phagocytosis vesicle area, number, and various fluorescence intensity measurements. Comparing these parameters, the total fluorescence intensity of vesicles/cell is the most sensitive one and was chosen for quantifying phagocytosis.
(§5) 2) The total cell counts—to measure overall cell viability, which is affected by proliferation and cell death. We chose to take 4 images/well (with the 10× objective lens) that cover about 50% of the total area of a well in a 384-well plate to represent cell count of the well.
(§6) 3) The average nuclear intensity—to measure drug-induced apoptosis, with high signal indicating nuclear condescension (a sign of early apoptosis) and low signal indicating DNA degradation (a sign of later apoptosis, when activated caspases digest DNA).
(§7) A phenotypic high-content imaging assay with simultaneous measurements of phagocytosis, cell number, and nuclear intensity was used to assess both cellular pharmacology and cell health. Model cell lines BV2 (immortalized mouse microglia, a gift from Dr. Michelle Block's laboratory at IUSM) and HMC3 (immortalized human microglia, obtained from ATCC, CRL-3304) were used to provide adequate throughput. Cells were cultured in DMEM GlutaMax media (ThermoFisher) containing 10% FBS and Pen-Strep in a 37° C. 5% CO2 incubator, plated in Corning Falcon 384 well Optilux Black and clear bottom plates: 400 cells/45 μl/well (BV2 cells), 600 cells/45 μl/well (HMC3 cells) and 2000 cell/45 μl/well (primary cells), and treated with 10× serially diluted compounds (60 μM-3 nM) for 48 hrs at 37° C. […]

HMC3 cells = test: Microglial phagocytosis/cell health high-content assay, HMC3 cells; type: cell-based; conditions: for Ave. % Cell Count @ 60 uM HMC3 cells / Ave. % Phagocytosis @ 60 uM HMC3 cells: 48 hrs, compared to control; for pEC50: read-out: stimulation of phagocytosis EC50; for pIC50: read-out: inhibition of phagocytosis IC50
Protocol: as §1, §2, §3, §4, §5, §6, §7

PLCγ2-HiBit = target: T1, PLCγ2-HiBit (Homo sapiens, UniProt P16885); test: Cellular thermal shift assay (SplitLuc CETSA), PLCγ2-HiBit in HMC3 cells; type: cell-based; conditions: for PLCγ2-HiBit %, percent luminescence at highest dose compared to control (DMSO): 100 μM
T1 construct: expressed in transfected cells; host or cells: HMC3 cells
T1 sequence (P16885 1-1265): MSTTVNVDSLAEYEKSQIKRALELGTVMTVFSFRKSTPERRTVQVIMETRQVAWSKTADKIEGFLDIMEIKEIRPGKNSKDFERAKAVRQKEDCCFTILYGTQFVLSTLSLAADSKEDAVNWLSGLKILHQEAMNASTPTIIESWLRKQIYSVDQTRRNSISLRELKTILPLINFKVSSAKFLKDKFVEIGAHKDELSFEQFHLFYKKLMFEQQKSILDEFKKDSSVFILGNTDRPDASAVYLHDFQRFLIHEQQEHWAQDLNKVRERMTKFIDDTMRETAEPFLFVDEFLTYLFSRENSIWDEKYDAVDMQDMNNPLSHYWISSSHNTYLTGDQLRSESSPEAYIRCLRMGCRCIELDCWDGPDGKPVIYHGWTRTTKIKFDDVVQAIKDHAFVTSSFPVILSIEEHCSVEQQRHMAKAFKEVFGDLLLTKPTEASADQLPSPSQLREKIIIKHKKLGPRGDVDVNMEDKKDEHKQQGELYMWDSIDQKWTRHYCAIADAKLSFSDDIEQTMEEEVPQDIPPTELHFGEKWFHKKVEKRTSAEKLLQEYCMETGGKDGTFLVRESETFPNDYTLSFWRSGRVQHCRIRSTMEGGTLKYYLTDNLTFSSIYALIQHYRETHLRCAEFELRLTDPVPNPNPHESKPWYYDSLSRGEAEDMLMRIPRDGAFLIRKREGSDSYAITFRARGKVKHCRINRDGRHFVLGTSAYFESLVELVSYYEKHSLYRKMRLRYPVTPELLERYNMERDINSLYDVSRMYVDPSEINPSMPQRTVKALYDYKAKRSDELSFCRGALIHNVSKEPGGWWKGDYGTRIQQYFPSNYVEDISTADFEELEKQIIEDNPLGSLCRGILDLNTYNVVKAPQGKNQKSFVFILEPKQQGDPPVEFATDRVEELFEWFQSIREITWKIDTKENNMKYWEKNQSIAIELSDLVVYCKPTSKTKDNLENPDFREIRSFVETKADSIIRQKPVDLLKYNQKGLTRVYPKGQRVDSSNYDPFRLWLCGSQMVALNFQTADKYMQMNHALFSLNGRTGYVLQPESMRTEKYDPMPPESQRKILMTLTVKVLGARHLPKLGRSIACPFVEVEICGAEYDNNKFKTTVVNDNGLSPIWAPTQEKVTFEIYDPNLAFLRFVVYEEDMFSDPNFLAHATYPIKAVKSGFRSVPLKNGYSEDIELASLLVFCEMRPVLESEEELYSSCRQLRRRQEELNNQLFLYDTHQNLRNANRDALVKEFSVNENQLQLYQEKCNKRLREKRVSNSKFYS
Text: These compounds have been evaluated using a wide variety of assay classes namely target engagement utilizing cellular thermal shift assay (CETSA),^34 affinity selection mass spectrometry (ASMS),^35 biochemical activity employing the fluorogenic probe XY-69,^36 and cellular activity testing for phagocytosis. Cellular Thermal Shift Assays (CETSA) assess cellular target engagement by quantifying changes in protein thermal stability upon ligand binding to endogenous proteins in intact cells.^34 For SAR studies, a split Nano Luciferase (SplitLuc CETSA) version of the assay was utilized to provide sufficient throughput.^37,38 HMC3 cells were stably transfected with PLCγ2-HiBit to enable protein expression in a physiologically relevant cellular context. The thermal stability of this HiBit-labeled protein in intact cells was measured in the following two formats. In the initial screen, using 96-well plates, cells were treated with FBS analogs at a single concentration (100 μM) at 37° C. for 60 min and then exposed to a 3-minute isothermal heating step at 45.9° C. (experimentally determined Tm of PLCγ2-HiBit). Luminescence detection was then conducted with the Nano-Glo HiBit Lytic detection kit (Promega, Cat. N3040).^38 Compound treatment was performed in triplicate, and raw signals were normalized to the mean of the controls (in the same plate) as % of control. When the difference in compound-treated cells >control mean+3SD, the compound was considered positive and selected for further testing with dose-response CETSA. In the dose response CETSA, cells were treated with decreasing concentrations from 100 μM with 1:3 serial dilutions to generate an 8-point curve. An AC50 was calculated with the % of control data using a four-parameter logistic curve regression model, and the percent luminescence remaining at the highest concentration is also reported for the compounds when the difference from the DMSO control is greater than 3× the standard deviation (SD). Otherwise, an AC50 was not calculated.

HiBit only = test: Cellular thermal shift assay (CETSA), HiBit only control; type: cell-based, human; conditions: for HiBit only %, percent luminescence at highest dose with HiBit only compared to control (DMSO): 100 μM; for HiBit only % @100 μM: Table 1
[1] = Kinetic solubility in pH 7.4 phosphate buffer; type: physicochemical
Protocol: (§8) Physicochemical and ADME properties were determined using the following assays: microsomal stability intrinsic clearance (Clint) in mouse liver microsomal solution, MDCK permeability (Papp), protein binding (fu) in mouse plasma, and kinetic solubility in pH 7.4 phosphate buffer (Table 7).

MDCK = MDCK permeability; type: in vitro ADME; conditions: estimate of intestinal absorption
Protocol: as §8

[2] = Table 1, CETSA dose response, read-out: AC50
[3] = Table 5, 8-point dose response from 100 μM, HMC3 cells, 45.9° C., read-out: AC50, concentration that induced a half-maximum loss of luminesce compared to control
[4] = Homo sapiens, HMC3, 48 h, HMC3 cells, 48 hours treatment

Row | Compound | Ave. % Cell Count @ 60 uM BV2 cells (BV2 cells) | Ave. % Phagocytosis @ 60 uM BV2 cells (BV2 cells) | phagocytosis increase against cell count decline (BV2 cells) | Ave. % Cell Count @ 60 uM HMC3 cells (HMC3 cells) | Ave. % Phagocytosis @ 60 uM HMC3 cells (HMC3 cells) | PLCγ2-HiBit %, percent luminescence at highest dose compared to control (DMSO) (PLCγ2-HiBit) | PLCy2-HiBit % @100 (PLCγ2-HiBit; Table 1) | AC50 (PLCγ2-HiBit; [2]) | AC50 (PLCγ2-HiBit; [3]) | HiBit only %, percent luminescence at highest dose with HiBit only compared to control (DMSO) (HiBit only) | HiBit only % @100 μM (HiBit only) | also measured
1 | Lipopolysaccharides [LPS, reference compound] |  |  |  |  |  |  |  |  |  |  |  | changes in nuclear intensity (BV2 cells; BV2 cells, 48 hr): no nuclear intensity changes up to 10 μg/ml LPS; also recorded: no changes in nuclear intensity; inhibition of cell count IC50 (BV2 cells; BV2 cells, 48 hr): 0.122 µg/mL; stimulation of phagocytosis EC50 (BV2 cells; BV2 cells, 48 hr): 0.255 µg/mL; response (phagocytosis, cell count, nuclear intensity) (HMC3 cells; HMC3 cells, 48 hr): did not respond to LPS treatment
2 | Cc1cccc(NS(=O)(=O)c2c(C)cc(C)cc2C)c1 [Compound 5] | 45% | 165% | the increase was paired with a sharp cell count decline | 78% | 111% | 54% | 54% | > 100 µM | > 100 µM | 95% | 96% | 
3 | Cc1cc(C)c(S(=O)(=O)Nc2cccc(C(F)F)c2)c(C)c1 [Compound 7] | 2% | 0% |  | 6% | 0% | 78% | 78% |  |  | 104% | 104% | Kinetic solubility [1]: 41 to 60 µM; Papp, MDCK permeability (MDCK): 37.4 ×10−^6 cm/s
4 | CN1CCN(CCOc2cc(OC3CCOCC3)c3c(Nc4c(Cl)ccc5c4OCO5)ncnc3c2)CC1 [Saracatinib, reference compound] |  |  |  |  |  |  |  |  |  |  |  | concentrations showing cell count decreases (BV2 cells; BV2 cells, 48 hours treatment): > 1 µM; pIC50 (BV2 cells; BV2 cells, 48 hours treatment): 6.08; pEC50 (BV2 cells; BV2 cells, 48 hours treatment, read-out: increased phagocytosis EC50): 6.58; concentrations showing cytotoxicity (HMC3 cells; HMC3 cells, 48 hours treatment): > 10 µM; pEC50 (HMC3 cells; HMC3 cells, 48 hours treatment): 6.74; pEC50 (HMC3 cells; [4]): > 6.70
5 | Cc1cc(Br)ccc1S(=O)(=O)Nc1cccc(C(F)(F)F)c1 [Compound 10] | 1% | 434% | the increase was paired with a sharp cell count decline | 11% | 93% | 17% | 17% | 57 µM | 57 µM | 40% | 40% | 
6 | CC[C@H](Nc1ncnc2[nH]cnc12)c1nc2cccc(F)c2c(=O)n1-c1ccccc1 [Idelalisib, reference compound] |  |  |  |  |  |  |  |  |  |  |  | effect on phagocytosis (BV2 cells; BV2 cells, 48 hours treatment): did not inhibit phagocytosis in BV2 cells, but increased phagocytosis in parallel with decreasing cell counts and increasing nuclear intensity; pEC50 (BV2 cells; BV2 cells, 48 hours treatment, 60 μM the maximal dose, read-out: stimulation of phagocytosis EC50): < 4.22; pIC50 (BV2 cells; BV2 cells, 48 hours treatment): 4.66; pEC50 (BV2 cells; BV2 cells, 48 hours treatment, read-out: nuclear intensity increase EC50): 5.38; pIC50 (HMC3 cells; HMC3 cells, 48 hours treatment): 6.28; pIC50 (HMC3 cells; [4]): ~6.30
7 | O=S(=O)(Nc1cccc(C(F)(F)F)c1)c1ccc(Cl)cc1Cl [Compound 9] | 9% | 581% | the increase was paired with a sharp cell count decline | 16% | 281% | 32% | 32% | 71 µM | 71 µM | 38% | 38% | 
